Assay results reported in patent US5750104A, “High buffer-containing enteric coating digestive enzyme bile acid compositions and method of treating digestive disorders therewith” (Digestive Care Inc., priority 1996, dated 1998).

What was measured:
[1] = test system: pancreatic enzymes; experiment: Compatibility and biological activity of pancreatic enzymes in acidic UDCA compositions; assay type: biochemical; settings: acidic form of UDCA
Text: Pancreatic enzymes and salts of UDCA complement one another in the digestive system of a mammal. A dietary supplement containing both the enzymes and salts of UDCA would provide in a convenient pre-determined dose the remedy needed to treat the above-described diseased states. […] Lipase is especially affected by the low pH for the reasons that: […]

[2] = cited from earlier work

C[C@H](CCC(=O)O)[C@H]1CC[C@H]2[C@@H]3[C@@H](O)C[C@@H]4C[C@H](O)CC[C@]4(C)[C@H]3CC[C@]12C [UDCA, ursodeoxycholic acid]
compatibility with pancreatic enzymes [1]: incompatible with pancreatic enzymes | benefit at higher dosage ([2]; about 30 mg/kg of body weight, some patients): limited benefits | effect on liver function ([2]; human, in vivo): augmenting liver function | undesirable side effects ([2]; human, in vivo): severe diarrhea | effect on nutritional state ([2]; patients having cystic fibrosis, hepatobiliary complications): improving the nutritional state
